The source of these data is article PMC6941952, “A homogeneous bioluminescent immunoassay to probe cellular signaling pathway regulation” (Communications Biology, 2020).

The experiment has as its system total IκBα. The experiment in a line: NanoBiT cell-based immunoassay, total IκBα in MCF-7 cells. The arrangement: species or system human. The conditions noted are these: for IKB with CHX Raw data / IKB with CHX Subtract reagent background / IkB Average: with CHX; for IkB Average: background subtracted. The procedure:
Prior to NanoBiT Cell-Based Immunoassay, 50,000 cells were seeded in 160 µl of complete growth media per well of a 96-well plate and incubated overnight. […] If necessary, the cell culture media were replaced with serum-free media after the cells were stably adherent on the plate and incubated overnight. To treat cells with activators or inhibitors, medium was changed to 30 µl of medium containing inhibitors. If activation of a specific pathway is needed, the cells were stimulated with 10 µl of medium containing activators. To lyse the cells, 10 µl of lysis buffer containing 0.1% digitonin diluted in 1X immunoassay buffer with protease and phosphatase inhibitors was added and the plates were mixed vigorously for 20 min. Then, 50 µl of an antibody mix containing two primary antibodies against the target protein and NanoBiT detecting antibodies (0.3 µl each per well), diluted in 1X immunoassay buffer was added to the lysates. The plates were incubated at 23 °C for 90 min, followed by the addition of 25 µl of Nano-Glo® reagent consisting of Nano-Glo® Luciferase Assay Substrate mixed with 1X immunoassay buffer. Luminescence was measured using a plate-reading luminometer.
Single dose or dose response inhibitor treatments were performed prior to activation of the pathways as follows. For IκBα, the cells were treated in 30 µl medium with IKK16 or MG132 for 60 min before the addition of 10 µl of DMEM containing appropriate concentration of TNFα. To measure phosphorylation of AKT or STAT3, the corresponding NanoBiT immunoassays were developed with MCF-7 or A431 cells, respectively, according the same scheme used to develop the IκBα assay using the primary antibodies for AKT and STAT3 described in the reagents section. […] Treatment with LY294002 was performed in 30 µl medium and cells were incubated for 60 min before the addition of 1 µM Insulin. To measure STAT3 phosphorylation, A431 cells were incubated overnight in DMEM medium without serum. […] After addition of the stimulators, the cells were incubated for additional times as follows. IκBα phosphorylation and degradation analyses required both time courses and single time points as described in figures. […] The NanoBiT immunoassay protocol was followed as described above.
All 96-well assay plates were read using a GloMax® 96 Microplate Luminometer from Promega. The instrument was set to 0.5 s integration time. In order to obtain net change of signal, the reagent background values (signal from the well containing all reagent except primary antibodies) were subtracted from the sample values. To plot and analyze the data, Microsoft Excel and GraphPad Prism® Software were used. IC50 values were determined by using a nonlinear regression fit to a sigmoidal dose response (variable slope).

“And” between values parts separate entries of the source, which are not always exact repeats. Identical values can stand only once.

As for `C[C@@H]1C[C@@H]([C@H](O)CC2CC(=O)NC(=O)C2)C(=O)[C@@H](C)C1` [CHX], the “IKB with CHX Raw data” value runs as follows: (TNF 0 min) 55360 and 57660 and 54100 and 60230; (TNF 5 min) 58100 and 62010 and 65600 and 63320; (TNF 10 min) 40310 and 45450 and 45320 and 45290; (TNF 20 min) 19760 and 23860 and 25280; (TNF 30 min) 17770 and 17940 and 21410 and 21590; (TNF 40 min) 17270 and 17950 and 20500 and 19500. For the same compound, the “IKB with CHX Raw data” value (TNF 60 min) is 18390 and 17430 and 19370 and 18920; the “IKB with CHX Raw data” value (TNF 80 min) is 19070 and 18960 and 19260 and 19280; the “IKB with CHX Raw data” value (TNF 100 min) is 19610 and 18970 and 19990 and 19730; the “IKB with CHX Raw data” value (TNF 120 min) is 20170 and 20220 and 20080 and 18790. Also, the “IKB with CHX Subtract reagent background” value by setting is: (TNF 0 min) 43590 and 45890 and 42330 and 48460; (TNF 5 min) 46330 and 50240 and 53830 and 51550; (TNF 10 min) 28540 and 33680 and 33550 and 33520; (TNF 20 min) 7990 and 12090 and 13510; (TNF 30 min) 6000 and 6170 and 9640 and 9820; (TNF 40 min) 5500 and 6180 and 8730 and 7730. For the same compound, the “IKB with CHX Subtract reagent background” value runs as follows: (TNF 60 min) 6620 and 5660 and 7600 and 7150; (TNF 80 min) 7300 and 7190 and 7490 and 7510; (TNF 100 min) 7840 and 7200 and 8220 and 7960; (TNF 120 min) 8400 and 8450 and 8310 and 7020. Also, the “IkB Average” value reads like this: (TNF 0 min) 45068; (TNF 5 min) 50488; (TNF 10 min) 32323; (TNF 20 min) 10395; (TNF 30 min) 7908; (TNF 40 min) 7035. The “IkB Average” value is, setting by setting: (TNF 60 min) 6758; (TNF 80 min) 7373; (TNF 100 min) 7805; (TNF 120 min) 8045.
For `C[C@@H]1C[C@@H]([C@H](O)CC2CC(=O)NC(=O)C2)C(=O)[C@@H](C)C1` [cycloheximide], the “IκBα after the degradation phase (de novo synthesis)” value (MCF-7 cells, TNFα 50 ng per ml, 20 µg per ml added after 30 min) was “not detected”.
